Activity calls are given as the source filed them. The calls are words filed in the database; no cut-off is given here.
Tests used:
[1] = species on record: Homo sapiens; assay: Inhibition of self-induced amyloid beta (1 to 42) (unknown origin) aggregation at 10 uM after 48 hrs by thioflavin-T fluorescence method relative to control
[2] = molecular target: Acetylcholinesterase (Electrophorus electricus, UniProt O42275); assay: Inhibition of electric eel AChE using acetylthiocholine chloride as substrate incubated for 15 mins by Ellman's method
Chain of Acetylcholinesterase (O42275 whole entry): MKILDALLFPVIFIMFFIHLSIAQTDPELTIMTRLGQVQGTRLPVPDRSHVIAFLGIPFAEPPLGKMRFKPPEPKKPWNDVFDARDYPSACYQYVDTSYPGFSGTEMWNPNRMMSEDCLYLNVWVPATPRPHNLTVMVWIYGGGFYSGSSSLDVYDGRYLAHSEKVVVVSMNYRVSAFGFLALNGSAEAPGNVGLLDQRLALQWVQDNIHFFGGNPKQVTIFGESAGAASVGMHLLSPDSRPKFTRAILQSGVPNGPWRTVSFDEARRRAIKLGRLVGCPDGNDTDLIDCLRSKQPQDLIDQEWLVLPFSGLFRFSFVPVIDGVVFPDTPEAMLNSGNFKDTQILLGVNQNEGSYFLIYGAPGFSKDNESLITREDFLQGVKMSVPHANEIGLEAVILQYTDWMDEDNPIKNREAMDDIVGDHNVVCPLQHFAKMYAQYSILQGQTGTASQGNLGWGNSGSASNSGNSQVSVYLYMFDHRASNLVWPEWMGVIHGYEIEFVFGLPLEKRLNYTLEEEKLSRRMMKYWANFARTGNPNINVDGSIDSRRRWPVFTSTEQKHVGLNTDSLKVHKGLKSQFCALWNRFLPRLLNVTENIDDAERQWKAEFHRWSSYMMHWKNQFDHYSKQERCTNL

[3] = in vitro; settings: PAMPA
Description: Effective permeability of the compound in PBS/ethanol buffer (9:1) at 25 ug/ml after 10 hrs by UV plate reader based PAMPA-BBB assay

[4] = test system: Drosophila melanogaster; assay: In vivo inhibition of AChE in Elav-GAL4/UAS-Abeta42 hybrid Drosophila melanogaster assessed as reduction in intracephalic AChE levels by HPLC analysis; format: functional; settings: dose 0.1-10 µM
[5] = test system: Drosophila melanogaster; assay: In vivo inhibition of AChE in Elav-GAL4/UAS-Abeta42 hybrid Drosophila melanogaster assessed as reduction in intracephalic AChE levels at 0.1 to 10 uM by HPLC analysis; format: functional; settings: dose 0.1-10 µM
[6] = test system: SH-SY5Y; assay: (§1) Inhibition of amyloid beta42 secretion in human SH-SY5Y cells overexpressing human APP Swedish mutant at 1 uM incubated for 24 hrs by ELISA; format: functional
[7] = test system: Caenorhabditis elegans; assay: Induction of autophagy in Caenorhabditis elegans BC12921 expressing SQST-1-GFP fusion protein assessed as decrease in fluorescence intensity at 1 uM by microplate reader analysis; format: functional; parameters: scale not given: the % may be the effect or the level left
[8] = molecular target: Acetylcholinesterase (Electrophorus electricus) (UniProt O42275); assay: Mixed type inhibition of electric eel AChE using acetylthiocholine chloride as substrate preincubated for 15 mins followed by substrate addition by reciprocal plot analysis
Chain of Acetylcholinesterase (Electrophorus electricus) (O42275 24-633 limits assumed): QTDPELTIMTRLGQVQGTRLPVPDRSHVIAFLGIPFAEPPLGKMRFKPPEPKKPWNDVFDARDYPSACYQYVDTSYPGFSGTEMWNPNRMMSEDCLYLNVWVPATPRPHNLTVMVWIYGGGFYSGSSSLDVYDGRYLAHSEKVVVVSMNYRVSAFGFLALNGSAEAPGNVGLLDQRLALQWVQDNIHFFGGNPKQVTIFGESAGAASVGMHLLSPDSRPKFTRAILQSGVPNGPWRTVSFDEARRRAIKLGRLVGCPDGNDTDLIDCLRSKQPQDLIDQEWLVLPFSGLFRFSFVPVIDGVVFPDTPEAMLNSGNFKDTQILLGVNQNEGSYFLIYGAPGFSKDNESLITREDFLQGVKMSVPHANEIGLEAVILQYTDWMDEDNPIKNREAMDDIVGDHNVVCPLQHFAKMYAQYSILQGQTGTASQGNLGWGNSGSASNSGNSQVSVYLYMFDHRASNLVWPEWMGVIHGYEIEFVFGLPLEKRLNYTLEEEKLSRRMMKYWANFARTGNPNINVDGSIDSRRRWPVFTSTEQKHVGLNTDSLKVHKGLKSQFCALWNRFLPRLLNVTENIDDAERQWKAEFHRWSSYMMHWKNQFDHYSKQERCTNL

[9] = as §1; format: functional

Compound: O=C(CN1CCCCC1)Nc1cccc2c1C(=O)c1cccc3ccnc-2c13
- inhibition [1]: 57.6%
- IC50 [2]: 156 nM
- Papp at 10 h, 25 ug/ml [3]: 1.63 ×10⁻⁶ cm/s
- inhibition [4]: Dose-dependent effect

Compound: O=C(CCCN1CCCCC1)Nc1c(Cl)ccc2c1-c1nccc3cccc(c13)C2=O
- inhibition [1]: 78.4%
- IC50 [2]: 148 nM
- Papp at 10 h, 25 ug/ml [3]: 2.44 ×10⁻⁶ cm/s
- inhibition [4]: Dose-dependent effect
- inhibition [5]: Active

Compound: O=C(CCCCCN1CCCCC1)Nc1cccc2c1C(=O)c1cccc3ccnc-2c13
- inhibition [1]: 55.7%
- IC50 [2]: 472 nM
- Papp at 10 h, 25 ug/ml [3]: 4.92 ×10⁻⁶ cm/s
- inhibition [4]: Dose-dependent effect

Compound: O=C(CCCCN1CCCCC1)Nc1cccc2c1C(=O)c1cccc3ccnc-2c13
- inhibition [1]: 52.5%
- IC50 [2]: 978 nM
- Papp at 10 h, 25 ug/ml [3]: 6.59 ×10⁻⁶ cm/s
- inhibition [4]: Dose-dependent effect

Compound: COc1cc(/C=C/C(=O)CC(=O)/C=C/c2ccc(O)c(OC)c2)ccc1O
- inhibition [1]: 45.1%

Compound: O=C(CCCCCN1CCCCC1)Nc1c(Cl)ccc2c1-c1nccc3cccc(c13)C2=O
- inhibition [1]: 67.7%
- IC50 [2]: 380 nM
- Papp at 10 h, 25 ug/ml [3]: 2.72 ×10⁻⁶ cm/s
- inhibition [4]: Dose-dependent effect

Compound: O=C(CCN1CCCCC1)Nc1cccc2c1C(=O)c1cccc3ccnc-2c13
- inhibition [1]: 76.1%
- IC50 [2]: 80.8 nM
- Papp at 10 h, 25 ug/ml [3]: 2.54 ×10⁻⁶ cm/s
- inhibition [6]: Active
- inhibition [4]: Dose-dependent effect
- inhibition [5]: Active
- Activity [7]: 28%
- inhibition [8]: Active

Compound: O=C(CCCCN1CCCCC1)Nc1c(Cl)ccc2c1-c1nccc3cccc(c13)C2=O
- inhibition [1]: 71.2%
- IC50 [2]: 1800 nM
- Papp at 10 h, 25 ug/ml [3]: 1.74 ×10⁻⁶ cm/s
- inhibition [4]: Dose-dependent effect

Compound: O=C(CN1CCCCC1)Nc1c(Cl)ccc2c1-c1nccc3cccc(c13)C2=O
- inhibition [1]: 51.3%
- IC50 [2]: 32.1 nM
- Papp at 10 h, 25 ug/ml [3]: 1.36 ×10⁻⁶ cm/s
- inhibition [6]: Active
- inhibition [4]: Dose-dependent effect

Compound: O=C(CCCN1CCCCC1)Nc1cccc2c1C(=O)c1cccc3ccnc-2c13
- inhibition [1]: 61.3%
- IC50 [2]: 187 nM
- Papp at 10 h, 25 ug/ml [3]: 1.52 ×10⁻⁶ cm/s
- inhibition [6]: Active
- inhibition [4]: Dose-dependent effect

Compound: O=C(CCN1CCCCC1)Nc1c(Cl)ccc2c1-c1nccc3cccc(c13)C2=O
- inhibition [1]: 74.6%
- IC50 [2]: 28.4 nM
- Papp at 10 h, 25 ug/ml [3]: 8.24 ×10⁻⁶ cm/s
- inhibition [6]: Active
- inhibition at 1 µM [9]: 46%
- inhibition [4]: Dose-dependent effect
- inhibition [5]: Active
- Activity [7]: 26.5%
- inhibition [8]: Active

Source: ChEMBL document CHEMBL4715782, “Multitarget-directed oxoisoaporphine derivatives: Anti-acetylcholinesterase, anti-β-amyloid aggregation and enhanced autophagy activity against Alzheimer's disease” (Bioorg Med Chem, 2016)
